Data reported in paper PMC7719179, “Small molecule inhibition of Dynamin-dependent endocytosis targets multiple niche signals and impairs leukemia stem cells” (Nature Communications, 2020).
Where “and” joins values, the source holds several entries; their conditions need not be identical. Equal entries are not always repeated. Where two headings read alike, the source gives them in different places.

What was measured:
[1] = test system: pStat5, Hes1, p-Erk, p-p38, p-S6, p-Akt in Lmo2^Tg DN3a cells; assay: Growth factor-mediated signalling effectors in co-cultured Lmo2^Tg DN3a cells (flow cytometry); format: cell-based, mouse; details: Supplementary Figure 2c; unstimulated and vehicle controls in the same table
Procedure: (§1) Phosphoflow analysis was performed as previously described. Briefly, 2 × 10^6 cells stained for surface markers were subsequently resuspended into PBS 1× + 4% v/v paraformaldehyde and incubated for 10 min at 4 °C for fixation. Fixed cells were washed twice using PBS 1×, then resuspended in pre-chilled at −20 °C Perm Buffer III (BD Pharmingen) and incubated 30 min at 4 °C for permeabilization. Cells were washed twice using PBS 1× and incubated overnight at 4 °C in PBS 1× + 2% v/v fetal calf serum (FCS) with Cell Signalling purified antibodies (Genesearch Pty Ltd, Arundel QLD, Australia) against pSTAT5 (Tyr694; #9359), phospho-p38 MAPK (Thr180/Tyr182; #4511), phospho-p44/42 (Erk1/2; #9102), phospho-S6 (Ser235/236; #4856) and phospho-Akt (Ser473; #9271) or isotype control. For intracellular HES1 detection, cells stained for surface markers were subsequently fixed and permeabilized using the BD Cytofix/Cytoperm^TM Kit and incubated overnight at 4 °C in PBS 1× + 2% v/v FCS with a purified antibody against HES1 (D6PU; #11988, Cell Signalling) or isotype control. After staining with primary antibodies for phosphoflow or intracellular detection, cells were incubated in permeabilization buffer with donkey Alexa Fluor 488-conjugated anti-rabbit secondary antibody (A-21206, lot #1910751, Molecular Probes, Invitrogen) or goat Alexa Fluor 546-conjugated anti-rabbit secondary antibody (A-11035, lot #1904467, Molecular Probes, Invitrogen) for 1 h on ice, and washed twice in PBS 1×. Fluorescence-activated cell sorting (FACS) analysis was performed using LSRII and LSR Fortessa cytometers, following the gating strategies described in Supplementary Fig. 11. Cell sorting was performed with a FACSAria or BD Influx.

DN3a thymocytes = assay: Relative viability and LC50 on DN3a thymocytes of WT, Lmo2^Tg, Lmo2^Tg;STAT5-CA^Tg and Lmo2^Tg;N1-ICD^Tg mice, 48 h
Procedure: Pre-leukemic and leukemic thymocytes were purified by flow cytometry and co-cultured on GFP-positive OP9 and OP9-DL1 stromal cell lines, as described previously. Thymocytes were co-cultured in reconstituted alpha-MEM medium (#12318, Gibco, Grand Island NY, USA) supplemented with 20% FCS (#12318), HEPES 10 mM (#15630-080), sodium pyruvate 1 mM (#11360-070), β-mercaptoethanol 55 μM (#21985-023), Glutamax 2 mM (#15750-060), 1% Penicillin/Streptomycin (#15140-122), 5 ng/mL rmFLT-3 ligand (#250-31 L, Pepro Tech), 5 ng/mL rmIL-7 (#217-17, Pepro Tech) and 25 ng/mL rmSCF (#250-03, Pepro Tech). After 48 h of co-culture, thymocytes were counted and analysed by FACS. […]
viability of wild-type (WT), Lmo2 Tg, Lmo2Tg;STAT5-CA Tg and Lmo2Tg;N1-ICD Tg DN3a thymocytes […]
normalized to cells treated with vehicle (%DMSO). Mean ± SEM of n=4 biological replicates. b, […]
thymocytes from 6-week old wild-type (WT), Lmo2 Tg, Lmo2Tg;STAT5-CATg and Lmo2Tg ;N1-ICD Tg mice. Mean ± SD of n=4 biological replicates are shown. 2-way ANOVA with Tukey’s correction test; […]
(1 picture or pasted object on this page, not shown here)
*P<0.05, *** P<0.001 compared to WT; #P<0.05, ##P<0.01, ###P<0.001 compared to L mo2Tg. c, Levels of pStat5 (left) after stimulation with IL-7 , as well as Hes1 expression (right) after co-culture on OP9- […]
(0.2 µM), Ruxolitinib (0.2 µM) and DAPT (0.1 µM). Unstimulated cells were used as negative controls (dashed line). Student’s t -test, ** P<0.01, *** P<0.001 compared to unstimulated cells. MFI ± SEM, 1-way ANOVA with Tukey’s correction test; **P<0.01, *** P<0.001 compared to vehicle. d, Clonogenic assay of normal murine hematopoietic stem and progenitor cells (HSPCs) cultured in the presence […]
± SD, Student’s t -test ( n=4) **P<0.01 compared to vehicle. e, Relative viability of wild-type (WT), […]
2 (0.2 µM), Ruxolitinib (0.2 µM) and DAPT (0.1 µM) for 48 hours. Viability was normalized to cells treated with vehicle (%DMSO, which was reported as 100). Mean ± SEM, 2-way ANOVA with Tukey’s correction test, **P<0.01, *** P<0.001 compared to vehicle.

[2] = test system: Hes1 in leukemic DN3a cells from primary Lmo2^Tg T-ALL; assay: Notch1 (DL1)-induced Hes1 in leukemic DN3a cells from primary Lmo2^Tg T-ALL; format: cell-based, mouse
Procedure: as §1
For in vitro NOTCH1 signalling activation assays, cells were seeded on OP9 and OP9-DL1 stromal cell lines as described in the co-culture assays section and incubated overnight with either Dynole 34-2 or Ruxolitinib or DAPT resuspended in DMSO. Harvested cells were washed twice using cold PBS 1× and incubated with 25 ng/mL Rat IgG (Sigma-Aldrich Pty Ltd, Castle Hill NSW, Australia) with a PE-conjugated antibody for detection of NOTCH1 for 1 h on ice, as described in the FACS analysis section. PE-conjugated isotype was used as negative control. Cells were washed twice, fixed and analysed for intracellular HES1 detection by flow cytometry as described in the FACS analysis section. The analysis was performed in triplicate and the MFI observed in thymocytes co-cultured on OP9 cells was reported as 100%.

[3] = leukemic DN3a cells of TALL249, Notch1 (DL1) stimulation
[4] = leukemic DN3a cells of TALL257, Notch1 (DL1) stimulation
[5] = leukemic DN3a cells of TALL273, Notch1 (DL1) stimulation
[6] = leukemic DN3a cells of TALL582, Notch1 (DL1) stimulation
[7] = leukemic DN3a cells of TALL588, Notch1 (DL1) stimulation
[8] = leukemic DN3a cells of TALL742, Notch1 (DL1) stimulation

Structure (SMILES): C[C@H](NC(=O)Cc1cc(F)cc(F)c1)C(=O)N[C@H](C(=O)OC(C)(C)C)c1ccccc1 [DAPT, N-[N-(3,5-Difluorophenacetyl)-L-alanyl]-S-phenylglycine t-butyl ester]
- Hes1 (MFI) [1]: 1314 MFI and 1222 MFI and 1307 MFI
- fold resistance of Lmo2^Tg;N1-ICD^Tg DN3a cells vs Lmo2^Tg thymocytes (DN3a thymocytes; LC50 comparison, 48 h): 9 fold
- Survival (% DMSO) (DN3a thymocytes; Lmo2Tg): 17.19 % DMSO and 25.07 % DMSO and 13.99 % DMSO
- Relative % viable cells (DN3a thymocytes; Lmo2Tg DN3a thymocytes, dose 0.02 mM (so in the source)): 79.43% and 55.29% and 67.53%
- Relative % viable cells (DN3a thymocytes; Lmo2Tg DN3a thymocytes, dose 0.1 mM (so in the source)): 25.07% and 13.99% and 17.19%
- Relative % viable cells (DN3a thymocytes; Lmo2Tg DN3a thymocytes, dose 0.5 mM (so in the source)): 5.42% and 10.32% and 11.23%
- Relative % viable cells (DN3a thymocytes; Lmo2Tg DN3a thymocytes, dose 2.5 mM (so in the source)): 5.22% and 9.91% and 8.68%
- Relative % viable cells (DN3a thymocytes; Lmo2Tg DN3a thymocytes, dose 12.5 mM (so in the source)): 5.76% and 9.27% and 6.48%
- Survival (% DMSO) (DN3a thymocytes; Lmo2Tg;Notch1Tg): 55.35 % DMSO and 68.13 % DMSO and 61.12 % DMSO and 65.99 % DMSO
- Relative % viable cells (DN3a thymocytes; Lmo2Tg;Notch1Tg DN3a thymocytes, dose 0.02 mM (so in the source)): 68.73% and 83.56% and 62.24% and 87.12%
- Relative % viable cells (DN3a thymocytes; Lmo2Tg;Notch1Tg DN3a thymocytes, dose 0.1 mM (so in the source)): 55.35% and 68.13% and 61.12% and 65.99%
- Relative % viable cells (DN3a thymocytes; Lmo2Tg;Notch1Tg DN3a thymocytes, dose 0.5 mM (so in the source)): 52.22% and 56.33% and 58%
- Survival (% DMSO) (DN3a thymocytes; Lmo2Tg;STAT5-CATg): 52.45 % DMSO and 51.11 % DMSO and 34.78 % DMSO
- Relative % viable cells (DN3a thymocytes; Lmo2Tg;STAT5-CATg DN3a thymocytes, dose 0.02 mM (so in the source)): 76.45% and 84.74% and 59.85%
- Relative % viable cells (DN3a thymocytes; Lmo2Tg;STAT5-CATg DN3a thymocytes, dose 0.1 mM (so in the source)): 52.45% and 51.11% and 34.78%
- Relative % viable cells (DN3a thymocytes; Lmo2Tg;STAT5-CATg DN3a thymocytes, dose 0.5 mM (so in the source)): 38.67% and 42.63% and 42.16%
- Relative % viable cells (DN3a thymocytes; Lmo2Tg;STAT5-CATg DN3a thymocytes, dose 2.5 mM (so in the source)): 27.14% and 38.85% and 21.86%
- Relative % viable cells (DN3a thymocytes; Lmo2Tg;STAT5-CATg DN3a thymocytes, dose 12.5 mM (so in the source)): 19.43% and 16.58% and 21.18%
- Hes1 (MFI) [2, 3]: 6973 MFI
- Hes1, FOLD over unstimulated [2, 3]: 0.92 fold
- Hes1 (MFI) [2, 4]: 4801 MFI
- Hes1, FOLD over unstimulated [2, 4]: 0.84 fold
- Hes1 (MFI) [2, 5]: 7737 MFI
- Hes1, FOLD over unstimulated [2, 5]: 0.92 fold
- Hes1 (MFI) [2, 6]: 5294 MFI
- Hes1, FOLD over unstimulated [2, 6]: 0.98 fold
- Hes1 (MFI) [2, 7]: 6134 MFI
- Hes1, FOLD over unstimulated [2, 7]: 1.12 fold
- Hes1 (MFI) [2, 8]: 7313 MFI
- Hes1, FOLD over unstimulated [2, 8]: 0.93 fold

Structure (SMILES): N#CC[C@H](C1CCCC1)n1cc(-c2ncnc3[nH]ccc23)cn1 [Ruxolitinib]
- Hes1 (MFI) [1]: 1340 MFI and 1445 MFI and 1491 MFI
- fold resistance of Lmo2^Tg;STAT5-CA^Tg DN3a thymocytes vs Lmo2^Tg DN3a cells (DN3a thymocytes; LC50 comparison, 48 h): 5.3 fold
- Survival (% DMSO) (DN3a thymocytes; Lmo2Tg;STAT5-CATg): 69.32 % DMSO and 78.95 % DMSO and 73.54 % DMSO
- viability at 40 µM (DN3a thymocytes; Mus musculus, Thymocyte, read-out: Relative % viable cells, Lmo2Tg DN3a thymocytes, dose 0.04 mM (so in the source)): 88.8%
- viability at 40 µM (DN3a thymocytes; Mus musculus, Thymocyte, read-out: Relative % viable cells, Lmo2Tg;STAT5-CATg DN3a thymocytes, dose 0.04 mM (so in the source)): 95.5%
- viability at 200 µM (DN3a thymocytes; Mus musculus, Thymocyte, read-out: Relative % viable cells, Lmo2Tg;STAT5-CATg DN3a thymocytes, dose 0.2 mM (so in the source)): 69.3%
- Survival (% DMSO) (DN3a thymocytes; WT): 39.65 % DMSO and 53.08 % DMSO and 37.17 % DMSO
- Hes1 (MFI) [2, 3]: 8215 MFI
- Hes1, FOLD over unstimulated [2, 3]: 1.09 fold
- Hes1 (MFI) [2, 4]: 8036 MFI
- Hes1, FOLD over unstimulated [2, 4]: 1.41 fold
- Hes1 (MFI) [2, 5]: 8741 MFI
- Hes1, FOLD over unstimulated [2, 5]: 1.04 fold
- Hes1 (MFI) [2, 6]: 6452 MFI
- Hes1, FOLD over unstimulated [2, 6]: 1.20 fold
- Hes1 (MFI) [2, 7]: 8104 MFI
- Hes1, FOLD over unstimulated [2, 7]: 1.48 fold
- Hes1 (MFI) [2, 8]: 10321 MFI
- Hes1, FOLD over unstimulated [2, 8]: 1.31 fold
